{
  "source": "patent US20100240040A1",
  "about": "“METHOD FOR SCREENING FOR SELECTIVE MODULATOR OF THE NF-KB PATHWAY ACTIVATION” (INSTITUT PASTEUR, priority 2007, published 2010)",
  "key": {"NF-AT pathway": {"test_system": "NF-AT pathway", "test": "NF-AT-luc reporter assay in Jurkat cells stimulated with PMA and ionomycin", "assay_type": "cell-based, human", "details": "5 μM peptide, T-lymphocytes", "protocol": "Jurkat T cells (clone 20) were transiently transfected by a DEAE-dextran method with a reporter plasmid containing the luciferase under the control of a promoter inducible by the ERK and p38 pathway (SRE-luc; Courtois et al., 1997, Mol. Cell. Biol, 17:1441-1449), the NF-AT pathway or the API pathway (respectively NF-AT-luc and AP1-luc; Northrop et al., 1993, J. Biol. […]., 268:2917-2923). Briefly, cells were washed and resuspended at 10^7 cells/ml in TBS containing 0.5 mg/ml of DEAE-dextran (Pharmacia). 1 μg per 2·10^6 cells of reporter plasmid was added. After 45 min at room temperature, the cells were diluted with 10 volumes of TBS, centrifuged, and resuspended at 10^6 cells/ml in 10% FCS-RPMI. After 24 h, cells were incubated with or without 5 μM NEMO-derived peptides (BA-NLM or BA-DR NLM) for 2 h. They were stimulated or mock-stimulated with 100 ng/ml PMA and 1 μg/ml ionomycin for 5 h, and finally lysed in luciferase buffer (25 mM Tris-phosphate pH 7.8 containing 8 mM MgCl2, 1 mM DTE, 1% Triton X100, 15% glycerol). Luciferase measurement was carried out in a Berthold Luminometer."}, "spCC2-LZ (MOD of NEMO)": {"biological_target": "T1, spCC2-LZ (MOD of NEMO) (Mus musculus, UniProt O88522)", "T1 construct": "spCC2-LZ, synthetic polypeptide subdomain CC2-LZ; made in house; host or cells: chemical synthesis", "T1 sequence (O88522 253-336)": "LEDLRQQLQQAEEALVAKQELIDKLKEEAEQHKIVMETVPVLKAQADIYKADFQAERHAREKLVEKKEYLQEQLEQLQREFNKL", "test": "Fluorescence anisotropy binding of labelled peptide to spCC2-LZ", "details": "labelled peptide 10 μM, increasing spCC2-LZ; read-out: dissociation constant for spCC2-LZ", "protocol": "Anisotropy measurements were performed with a QuantaMaster® fluorometer (PTI), equipped with polarizing filters for excitation and emission, and using a photomultiplier tube in the L-configuration. All experiments were carried out in a microcuvette (60 μl) at 22° C., with excitation and emission wavelengths at 495 and 513 nm. The band pass of the excitation and emission wavelengths was 2 and 4 nm, respectively. Steady-state fluorescence anisotropy, expressed as millianisotropy units was measured as described Agou et al., 2004a. All measurements were carried out in a 20 mM isoionic buffer pH 8 (10 mM acetic acide, 10 mM MES, 20 mM Tris), containing 20 mM KCl. Each data point is the result of 20 recording taken over a 2-min period. To analyse whether DR NLM binds the MOD of NEMO, fluorescent labelled BA-DR NLM (10 μM) was incubated with an increasing concentrations of spCC2-LZ and the complex formation was monitored by fluorescence polarization (P) and results are expressed as anisotropy (A) according to the formula A=2P/(3-P). The concentration of spCC2-LZ was determining by amino acid analysis (Vinolo et al; 2006). Data points were fitted to the binding isotherm equation which gives a dissociation constant of 17 μM."}, "Flag-NEMO": {"biological_target": "T2, Flag-NEMO (Mus musculus, UniProt O88522, A144V/E216G/P360T/S248N)", "T2 construct": "expressed in transfected cells", "T2 sequence (O88522 with tags, fused parts or gaps A144V/E216G/S248N/P360T)": "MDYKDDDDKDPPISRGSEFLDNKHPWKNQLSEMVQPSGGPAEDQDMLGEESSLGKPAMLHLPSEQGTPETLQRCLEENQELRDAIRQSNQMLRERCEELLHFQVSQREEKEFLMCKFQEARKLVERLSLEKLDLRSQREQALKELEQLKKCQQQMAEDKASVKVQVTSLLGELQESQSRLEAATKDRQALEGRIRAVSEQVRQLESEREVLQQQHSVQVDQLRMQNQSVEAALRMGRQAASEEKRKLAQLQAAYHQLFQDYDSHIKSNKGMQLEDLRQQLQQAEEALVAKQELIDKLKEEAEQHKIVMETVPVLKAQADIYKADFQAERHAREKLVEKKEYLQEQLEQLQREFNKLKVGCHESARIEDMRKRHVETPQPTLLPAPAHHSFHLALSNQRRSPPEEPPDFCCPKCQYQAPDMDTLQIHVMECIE", "test": "Pull-down of Flag-NEMO from JM4.5.2/Flag-NEMO cells treated with Bodipy-conjugated peptides, bead fluorescence", "assay_type": "cell-based, murine", "details": "20 μM peptide, 4 h", "protocol": "5·10^6 JM4.5.2/Flag-NEMO cells were seeded in 6-well plates (3 ml/well) and incubated with 20 μM of Bodipy-conjugated peptides (BA-NLM or BA-DR NLM) for 4 h at 37° C. Cells were centrifuged at 400×g for 5 min, resuspended in 200 μl of an hypotonic buffer (10 mM TrisHCl pH 7.9, 1.5 mM MgCl2, 10 mM KCl), left on ice for 20 min and lysed by several passage through a 26 G needle. Lysates were clarified at 15 000×g for 20 min and 80 μg of total proteins were incubated with 40 μl of agarose anti-Flag M2 beads for 1 h at 4° C. The Flag-NEMO protein were pulled down with the agarose anti-Flag M2 beads by centrifugation for 1 min. Beads were resuspended in 100 μl of hypotonic buffer and the fluorescence of NEMO linked peptide was read on microplate reader from SAFAS. NEMO coated beads were analyzed by Western blotting using anti-Flag M2 monoclonal antibodies to normalize the sample using the UN-SCAN-IT software. […]"}},
  "note": "pKd: −log10 of the molar value. Where a SMILES comes first, the peptide text is derived from it.",
  "data": [
    {"molecule": "CC[C@H](C)[C@H](NC(=O)[C@H](CC(=O)O)NC(=O)[C@H](C)NC(=O)[C@H](CCC(N)=O)NC(=O)[C@H](C)NC(=O)[C@H](CCCCN)NC(=O)[C@H](CC(C)C)NC(C)=O)C(=O)N[C@@H](Cc1ccc(O)cc1)C(=O)N[C@@H](CCCCN)C(=O)N[C@@H](C)C(=O)N[C@@H](CCCNC(=N)N)C(=O)N[C@@H](Cc1ccccc1)C(=O)N[C@@H](CCC(N)=O)C(=O)N[C@@H](C)C(=O)N[C@@H](CCC(=O)O)C(=O)N[C@@H](CCCNC(=N)N)C(=O)N[C@@H](Cc1c[nH]cn1)C(=O)N[C@@H](C)C(=O)N[C@@H](CCCNC(=N)N)C(=O)N[C@@H](CCC(=O)O)C(=O)N[C@@H](CCCCN)C(N)=O", "note": "[DR NLM] (Ac-LKAQADIYKARFQAERHAREK-NH2; N-terminus and C-terminus assumed)", "values": [
      {"measurement": "effect on NF-AT pathway", "setting": "NF-AT pathway", "value": "does not abrogate"},
      {"measurement": "pKd", "setting": "spCC2-LZ (MOD of NEMO)", "value": 4.77},
      {"measurement": "peptide bound to NEMO in cells (bead fluorescence)", "setting": "Flag-NEMO", "value": "binds specifically to NEMO"}
    ]}
  ]
}
